Here are results for 13 compounds from patent publication EP1154787B1 (priority 1999, dated 2000).

Where “and” joins values, the source holds several entries; their conditions need not be identical. Identical values can stand only once. Entries after “also recorded” stand apart in the source; their conditions may differ. Counter-ions that a name gives are not always drawn. Like-named read-outs stand apart in the source and are kept apart here.

In one data set the test system is yellow fever virus. It counts as cell-based.
For data set [1] the following is noted: cited from earlier work.
The subject of data set [2] is VSV. It counts as cell-based.
A further data set concerns a viral challenge. Format: cell-based. Particulars: for EC50: read-out: µM of test compounds # (concentration of test compound alone to protect Vero cells against a viral challenge by approximately 50%).
Data set [3] deals with kunjin virus. It counts as cell-based.
Another data set concerns dengue virus. It counts as cell-based.
The subject of data set [4] is kunjin virus. It counts as cell-based. This is another data set of the same source.
Data set [5] deals with VSV. Format: cell-based. The source holds these as a separate data set.

As to `NC(=O)c1c[se]c([C@@H]2O[C@H](CO)[C@@H](O)[C@H]2O)n1` [Selenofurin, 2-β-D-ribofuranosylselenazole-4-carboxamide], in the data set on yellow fever virus, the CI is 0.94 and 0.65 and 0.53 and 0.62 and 0.49.

With `Nc1ccn([C@@H]2C=C(CO)[C@@H](O)[C@H]2O)c(=O)n1` [CPE-C, cyclopentenyl cytosine], the “deaths with refractory hypotension” value in data set [1] (hypotensive patients at 4.7 mg/m^2 per hour of CPE-C) is reported as “Two of the four hypotensive patients died”. The hypotension result in data set [1] (patients receiving ≤2.5 mg/m^2 per h CPE-C) is on record as “Hypotension was not seen; also recorded: no hypotension was observed”; in data set [1] (patients who received 4.7 mg/m^2 per hour of CPE-C, 24 to 48 hours after completion of infusion), “Four of the eleven patients”. In the data set with VSV [2], the CI was 0.98 and 0.81 and 0.80 and 0.97 and 0.75 and 0.79 and 0.76 and 0.74. Further, the “Fold enhancement of antiviral activity” value with a viral challenge stood at 10 fold. Besides, the EC50 in the data set on a viral challenge is roughly 0.1 µM. Moreover, in the data set with kunjin virus [3], the “enhancement of the antiviral activity of interferon” value was 10 fold and 5 fold.

With `CCc1c(CNc2ccc(C(=O)NC(CC(=O)O)C(=O)O)cc2)ccc2nc(N)nc(N)c12` (stereo not drawn) [NSC 184692], the “enhanced the anti-viral effect of human IFNβ” value in the data set on dengue virus came out at 10 fold. In the data set with dengue virus (read-out: ED50 against dengue virus), the EC50 worked out at 0.00012 µM.

For the compound `Nc1nccc2c1ncn2[C@@H]1C=C(CO)[C@@H](O)[C@H]1O` [3-DAN, 3-deazaneplanocin A], in the data set with VSV [2], the CI is 0.88 and 0.85 and 0.79 and 0.80 and 0.92 and 0.90 and 0.84.

As for `CCc1nc(N)nc(N)c1-c1ccc(Cc2ccccc2)c([N+](=O)[O-])c1` [NSC 382046], the CI with kunjin virus [4] was 0.99 and 0.96 and 0.83 and 0.75 and 0.70; in the data set with dengue virus, 0.758 and 0.672.

Regarding `NC(=O)c1csc([C@@H]2O[C@H](CO)[C@@H](O)[C@H]2O)n1` [Tiazofurin, 2-β-D-ribofuranosylthiazole-4-carboxamide], the CI with yellow fever virus was 0.85 and 0.68 and 0.51 and 0.87.

`C#Cc1c(C(N)=O)ncn1[C@@H]1O[C@H](CO)[C@@H](O)[C@H]1O` [EICAR, 5-ethynyl-1-β-D-ribofuranosylimidazole-4-carboxamide]: in the data set with a viral challenge, the “Fold enhancement of antiviral activity” value is on record as 2 fold and the EC50 is roughly 1 µM.

For orientation: IC50 means the point on the concentration scale where inhibition reaches its midpoint. For the compound `Cc1nc(N)nc(N)c1-c1ccc(Cl)c(Cl)c1` [NSC 7364], in the data set with dengue virus, the CI was 0.834 and 0.813 and 0.979. Besides, the IC50 with dengue virus (read-out: NSC 7364 IC50) turned out to be 0.372 µM.

Take `O=c1cnn([C@@H]2O[C@H](CO)[C@@H](O)[C@H]2O)c(=O)[nH]1` [6-AU, 6-azauridine]: the CI in the data set with VSV [2] was 0.49 and 0.59.

Turning to `NC(=O)c1[nH]nc([C@@H]2O[C@H](CO)[C@@H](O)[C@H]2O)c1O` [NSC 143095], the CI in the data set on yellow fever virus was 0.71 and 0.57 and 0.69.

`Nc1ncnc2c1ncn2[C@@H]1C=C(CO)[C@@H](O)[C@H]1O` [Neplanocin A, neplanocin A]: the CI in the data set with VSV [2] was 0.80 and 0.56 and 0.40 and 0.67 and 0.71; in the data set on yellow fever virus, 0.63 and 0.71 and 0.59.

`NC12CC3CC(CC(C3)C1)C2` [amantadine, amantadine hydrochloride]: the CI in the data set on kunjin virus [4] is 0.76. The CI with VSV [2] (hydrochloride) is 0.79 and 0.76 and 0.62 and 0.66 and 0.87. Also, in the data set with a viral challenge, the “Fold enhancement of antiviral activity” value is listed as 50 fold and the EC50 is roughly 1 µM.

In the case of `COc1c(C)c2c(c(O)c1C/C=C(\C)CCC(=O)O)C(=O)OC2` [mycophenolic acid], the IC50 in the data set on VSV [2] (read-out: MPA IC50) was 0.2 µM. Besides, in the data set on a viral challenge, the “Fold enhancement of antiviral activity” value was determined as 3 fold and the EC50 is roughly 0.1 µM. For the same compound, the CI in the data set with VSV [5] is 0.48 and 0.46 and 0.56.
